Data taken from article PMC9126595, “Identification of 3-(piperazinylmethyl)benzofuran derivatives as novel type II CDK2 inhibitors: design, synthesis, biological evaluation, and in silico insights” (Journal of Enzyme Inhibition and Medicinal Chemistry, 2022).
Read-outs that look alike come from different tables or passages of the source.

Key:
[1] = test system: MCF-7 breast cancer cell line; assay: SRB anti-proliferative assay, MCF-7; assay type: cell-based, human; details: read-out: IC50 MCF-7
Description: (§1) The experimental details for the performed biological assays; Sulforhodamine B (SRB) cytotoxicity, CDK2 kinase, Annexin V-FITC apoptosis, and cell cycle assays[86–89] were mentioned in the Supporting Information.
(§2) 1. Anti-proliferative activity assay
(§3) The examined human pancreatic cancer (Panc-1), breast cancer (MCF-7), and lung carcinoma (A549) cell lines have been obtained from American Type Culture Collection (ATCC). The cells were maintained in Dulbecco's modified Eagle's medium (DMEM) supplemented with 10% heat inactivated fetal calf serum (GIBCO), penicillin (100 U/ml) and streptomycin (100 µg/ml) at 37 °C in humidified atmosphere containing 5% CO2. […]
(§4) a 25 cm2 flask in 5 ml of culture medium. The anti-proliferative activity of the tested 3-(piperazinylmethyl)benzofurans (9, 11, 13, 15 and 17) was measured in vitro using the Sulfo-Rhodamine-B stain (SRB) assay. Briefly, cells were plated out in 96-well microtiter plate (0.5X10^4 cells/well) and incubated for 24 h before treatment with the tested hybrids to allow cells to attach to the bottom of the well of the plate. Tested benzofurans were dissolved in DMSO at 1 mg/ml immediately before use and diluted to the appropriate volume just before addition to the cell culture. Different concentrations of tested benzofurans, and Staurosporine were added to the cells (three wells were prepared for each individual dose). Cells were incubated with the hybrids for 48 […]
(§5) After 48 h cells were fixed, washed, and stained for 30 min with 0.4% (w/v) SRB dissolved in 1% acetic acid. Unbound dye was removed by four washes with 1% acetic acid, and attached stain was recovered with Tris-EDTA buffer. Color intensity was measured in an ELISA reader. The relation between percent of surviving fraction and log drug concentration is plotted to get the survival curve for each cell line. […]

[2] = test system: Panc-1 pancreatic cancer cell line; assay: SRB anti-proliferative assay, Panc-1; assay type: cell-based, human; details: read-out: IC50 Panc-1
Description: as §1, §2, §3, §4, §5

[3] = test system: A-549 lung carcinoma cell line; assay: SRB anti-proliferative assay, A-549; assay type: cell-based, human; details: read-out: IC50 A-549
Description: as §1, §2, §3, §4, §5

[4] = test system: non-tumorigenic human lung fibroblast MRC-5 cell line; assay: Normal cell cytotoxicity, MRC-5; assay type: cell-based
Procedure: To test the safety of the newly synthesised compounds and their selectivity towards cancer cells, their cytotoxic activity was tested on non-tumorigenic human lung fibroblast MRC-5 cell line.

[5] = target: T1, CDK2 (Homo sapiens, UniProt P24941); assay: CDK2 kinase inhibitory assay (Promega CDK2 Kinase Enzyme System); assay type: biochemical; details: mean ± SD of three separate experiments
T1 construct: purchased Promega V2971
Description: The experimental details for the performed biological assays; Sulforhodamine B (SRB) cytotoxicity, CDK2 kinase, Annexin V-FITC apoptosis, and cell cycle assays[86–89] were mentioned in the Supporting Information. […]
4. CDK Kinase Inhibitory Activity
CDK2 Kinase Enzyme System (catalog No. V2971) (Promega, Milan, Italy), according to the
manufacturer’s instructions. […]

[6] = test system: Panc-1 cells; assay: Cell cycle analysis (PI flow cytometry); assay type: cell-based, human; details: Panc-1, IC50 dose, 24 h; for proportion of cells in sub-G1 phase: control 2.36%; for proportion of cells in G2/M phase: control 12.17%; for cells population in S phase: control 41.90%; for cells population in G0/G1 phase: control 43.57%
Procedure: as §3
a 25 cm2 flask in 5 ml of culture medium. […]
The concentration required for […]
concentration), and then cells were washed twice with ice-cold phosphate buffered saline (PBS).
Subsequently, the treated cells were collected by centrifugation, fixed in ice-cold 70% (v/v) ethanol, washed with PBS, re-suspended with 100 μg/mL RNase, stained with 40 μg/mL PI, and analyzed by flow cytometry using FACS Calibur (Becton Dickinson, BD, Franklin Lakes, NJ, USA). The cell cycle distributions were calculated using CellQuest software 5.1 (Becton

[7] = test system: Panc-1 cells; assay: Annexin V-FITC/PI apoptosis assay; assay type: cell-based, human; details: Panc-1, IC50 concentration; for total apoptotic cells percentage: control 2.41%; for early apoptotic phase percentage: lower right quadrant, control 0.59%; for late apoptotic phase percentage: upper right quadrant, control 0.32%
Procedure: Anx V flowcytometry assay is featured as a helpful tool to determine whether cells death is due to the physiological apoptosis or to the non-specific necrosis.
3. Annexin V-FITC Apoptosis Assay
Phosphatidylserine externalization was assayed using Annexin V-FITC/PI apoptosis detection kit (BD Biosciences, USA) according to the manufacturer’s instructions. Pancreatic cancer Panc-1 […]
concentration. Briefly, cells were then harvested via trypsinization, and rinsed twice in PBS followed by binding buffer. Moreover, cells were re-suspended in 100 μL of binding buffer with the addition of 1 μL of FITC-Annexin V followed by an incubation period of 30 min at 4 °C. Cells were then rinsed in binding buffer and resuspended in 150 μL of binding buffer with the addition

[8] = SRB, 48 h, mean of 3 separate experiments
[9] = Homo sapiens, MCF7, SRB, 48 h, mean of 3 separate experiments
[10] = MRC5, normal lung fibroblasts, mean of three separate experiments, read-out: IC50 MRC-5
[11] = Homo sapiens, PANC-1, SRB, 48 h, mean of 3 separate experiments
[12] = Homo sapiens, A549, SRB, 48 h, mean of 3 separate experiments

Row | IC50 [1, 9] [µM] | IC50 [5] [µM] | melting point [°C] | IC50 [2, 11] [µM] | IC50 [3, 12] [µM] | Structure (SMILES) | IC50 [4, 10] [µM] | further results
1 | – | – | – | – | – | N.N.[Cl][Pt][Cl] [Cisplatin, reference compound] | – | IC50 [1, 8]: 5.45 ± 0.4 µM; IC50 [2, 8]: 6.98 ± 0.35 µM; IC50 [3, 8]: 6.72 ± 0.37 µM
2 | 118 ± 6.02 | 0.322 ± 0.016 | 198 to 200 | 86.9 ± 4.17 | 85.5 ± 6.21 | O=C(NNC(=S)Nc1ccccc1)c1oc2ccccc2c1CN1CCN(c2ccccc2)CC1 [Compound 9a] | 406 ± 21 | –
3 | 98.5 ± 4.47 | 0.0849 ± 0.0043 | – | 61.9 ± 3.48 | 80.4 ± 4.87 | COc1cccc(NC(=S)NNC(=O)c2oc3ccccc3c2CN2CCN(c3ccccc3)CC2)c1 [Compound 9b] | 289 ± 19 | –
4 | 86.6 ± 5.28 | 0.214 ± 0.011 | 182 to 184 | 103 ± 6.21 | 72.2 ± 5.36 | COc1ccc(NC(=S)NNC(=O)c2oc3ccccc3c2CN2CCN(c3ccccc3)CC2)cc1 [Compound 9c] | 261 ± 20 | –
5 | 53.9 ± 3.57 | 0.0777 ± 0.041 | – | 27.2 ± 1.87 | 40.4 ± 2.74 | O=C(NNC(=S)Nc1cccc(F)c1)c1oc2ccccc2c1CN1CCN(c2ccccc2)CC1 [Compound 9d] | 166 ± 14 | –
6 | 5.89 ± 0.43 | 0.065 ± 0.0033 | 218 to 220 | 3.29 ± 0.2 | 5.24 ± 0.4 | O=C(NNC(=S)Nc1ccc(F)cc1)c1oc2ccccc2c1CN1CCN(c2ccccc2)CC1 [Compound 9e] | 52 ± 3 | –
7 | 127 ± 7.56 | 0.119 ± 0.0061 | – | 126 ± 7.06 | 127 ± 7.61 | O=C(NNC(=S)Nc1cccc(Cl)c1)c1oc2ccccc2c1CN1CCN(c2ccccc2)CC1 [Compound 9f] | 391 ± 25 | –
8 | 121 ± 8.39 | 0.0698 ± 0.0036 | 197 to 199 | 122 ± 6.34 | 111 ± 6.38 | O=C(NNC(=S)Nc1ccc(Cl)cc1)c1oc2ccccc2c1CN1CCN(c2ccccc2)CC1 [Compound 9g] | 342 ± 30 | –
9 | 2.92 ± 0.17 | 0.0409 ± 0.0021 | – | 0.94 ± 0.1 | 1.71 ± 0.12 | O=C(NNC(=S)Nc1cccc(C(F)(F)F)c1)c1oc2ccccc2c1CN1CCN(c2ccccc2)CC1 [Compound 9h] | 27.7 ± 1.8 | proportion of cells in sub-G1 phase [6]: 30.32%; proportion of cells in G2/M phase [6]: 32.46%; cells population in S phase [6]: 16.66%; cells population in G0/G1 phase [6]: 20.56%; total apoptotic cells percentage [7]: 43.51%; early apoptotic phase percentage [7]: 5.41%; late apoptotic phase percentage [7]: 20.99%
10 | 27.3 ± 2.05 | 0.0894 ± 0.00462 | – | 19.2 ± 1.27 | 29.2 ± 2.06 | CC(=O)c1ccc(NC(=S)NNC(=O)c2oc3ccccc3c2CN2CCN(c3ccccc3)CC2)cc1 [Compound 9i] | 142 ± 11 | –
11 | – | – | – | – | – | O=C(NNC(=O)c1oc2ccccc2c1CN1CCN(c2ccccc2)CC1)Nc1ccccc1 [Compound 11a] | – | IC50 ([1]; Homo sapiens, MCF7, 48 h): 55.9 ± 3.18 µM; IC50 ([4]; MRC5, read-out: IC50 MRC-5): 178 ± 13 µM; IC50 ([2]; Homo sapiens, PANC-1, 48 h): 56.8 ± 2.94 µM; IC50 ([3]; Homo sapiens, A549, 48 h): 49.3 ± 3.27 µM
12 | – | – | – | – | – | COc1cccc(NC(=O)NNC(=O)c2oc3ccccc3c2CN2CCN(c3ccccc3)CC2)c1 [Compound 11b] | – | IC50 ([1]; Homo sapiens, MCF7, 48 h): 15.2 ± 1.34 µM; IC50 ([4]; MRC5, read-out: IC50 MRC-5): 121 ± 10 µM; IC50 ([2]; Homo sapiens, PANC-1, 48 h): 10.2 ± 0.86 µM; IC50 ([3]; Homo sapiens, A549, 48 h): 13.8 ± 1.04 µM
13 | – | – | – | – | – | COc1ccc(NC(=O)NNC(=O)c2oc3ccccc3c2CN2CCN(c3ccccc3)CC2)cc1 [Compound 11c] | – | IC50 ([1]; Homo sapiens, MCF7, 48 h): 76.9 ± 5.21 µM; IC50 ([4]; MRC5, read-out: IC50 MRC-5): 246 ± 13 µM; IC50 ([2]; Homo sapiens, PANC-1, 48 h): 61.5 ± 4.52 µM; IC50 ([3]; Homo sapiens, A549, 48 h): 57 ± 2.33 µM
14 | – | – | – | – | – | O=C(NNC(=O)c1oc2ccccc2c1CN1CCN(c2ccccc2)CC1)Nc1ccc(Cl)c(C(F)(F)F)c1 [Compound 11d] | – | IC50 ([1]; Homo sapiens, MCF7, 48 h): 5.57 ± 0.47 µM; IC50 ([4]; MRC5, read-out: IC50 MRC-5): 74 ± 5 µM; proportion of cells in sub-G1 phase [6]: 23.04%; proportion of cells in G2/M phase [6]: 27.52%; cells population in S phase [6]: 22.61%; cells population in G0/G1 phase [6]: 26.83%; IC50 ([2]; Homo sapiens, PANC-1, 48 h): 2.22 ± 0.13 µM; total apoptotic cells percentage [7]: 29.93%; early apoptotic phase percentage [7]: 2.64%; late apoptotic phase percentage [7]: 15.87%; IC50 ([3]; Homo sapiens, A549, 48 h): 2.99 ± 0.21 µM
15 | – | – | – | – | – | COc1ccc(NC(=O)NNC(=O)c2oc3ccccc3c2CN2CCN(c3ccccc3)CC2)cn1 [Compound 11e] | – | IC50 ([1]; Homo sapiens, MCF7, 48 h): 48.7 ± 3.54 µM; IC50 ([4]; MRC5, read-out: IC50 MRC-5): 244 ± 18 µM; IC50 ([2]; Homo sapiens, PANC-1, 48 h): 54.6 ± 4.22 µM
16 | 118 ± 8.39 | 0.152 ± 0.0077 | – | 169 ± 9.41 | 109 ± 7.59 | O=C(NN=Cc1ccccc1)c1oc2ccccc2c1CN1CCN(c2ccccc2)CC1 [Compound 13a] | > 500 | –
17 | 2.98 ± 0.18 | 0.0656 ± 0.00331 | 176 to 178 | 1.04 ± 0.08 | 1.71 ± 0.1 | COc1cccc(C=NNC(=O)c2oc3ccccc3c2CN2CCN(c3ccccc3)CC2)c1 [Compound 13b] | 18.1 ± 1.3 | –
18 | 13.6 ± 0.94 | 0.0526 ± 0.0027 | 181 to 182 | 4.47 ± 0.29 | 14.4 ± 1.02 | COc1ccc(C=NNC(=O)c2oc3ccccc3c2CN2CCN(c3ccccc3)CC2)cc1 [Compound 13c] | 121 ± 9 | –
19 | 123 ± 6.82 | 0.333 ± 0.017 | 191 to 193 | 120 ± 5.77 | 98.4 ± 5.61 | CC(=NNC(=O)c1oc2ccccc2c1CN1CCN(c2ccccc2)CC1)c1ccccc1 [Compound 15a] | 452 ± 28 | –
20 | 44.4 ± 2.96 | 0.127 ± 0.0065 | – | 25.4 ± 1.7 | 28.5 ± 1.92 | COc1ccc(C(C)=NNC(=O)c2oc3ccccc3c2CN2CCN(c3ccccc3)CC2)cc1 [Compound 15b] | 160 ± 10 | –
21 | 82.8 ± 5.43 | 0.0656 ± 0.0033 | – | 80.4 ± 4.83 | 58.9 ± 1.88 | O=C(NN=C1CCCc2ccccc21)c1oc2ccccc2c1CN1CCN(c2ccccc2)CC1 [Compound 17] | 284 ± 15 | –
